Data reported in US20260152487A1 (Sitryx Therapeutics Limited, priority 2021, published 2026).

Assays:
recombinant human PKLR = molecular target: T1, recombinant human PKLR (Homo sapiens, UniProt P30613); assay: Human PKLR activation assay (Kinase-Glo Plus luminescent detection of generated ATP); type: biochemical; conditions: for EC50: activation of recombinant human PKLR, 4-parameter logistic fit, read-out: hPKLR EC50; for Emax: percentage activation normalised to DMSO vehicle (LOW) and 5 μM TEPP-46 (HIGH) controls, read-out: hPKLR Emax (%)
T1 construct: His (N); purchased R&D Systems
T1 sequence (P30613 whole entry): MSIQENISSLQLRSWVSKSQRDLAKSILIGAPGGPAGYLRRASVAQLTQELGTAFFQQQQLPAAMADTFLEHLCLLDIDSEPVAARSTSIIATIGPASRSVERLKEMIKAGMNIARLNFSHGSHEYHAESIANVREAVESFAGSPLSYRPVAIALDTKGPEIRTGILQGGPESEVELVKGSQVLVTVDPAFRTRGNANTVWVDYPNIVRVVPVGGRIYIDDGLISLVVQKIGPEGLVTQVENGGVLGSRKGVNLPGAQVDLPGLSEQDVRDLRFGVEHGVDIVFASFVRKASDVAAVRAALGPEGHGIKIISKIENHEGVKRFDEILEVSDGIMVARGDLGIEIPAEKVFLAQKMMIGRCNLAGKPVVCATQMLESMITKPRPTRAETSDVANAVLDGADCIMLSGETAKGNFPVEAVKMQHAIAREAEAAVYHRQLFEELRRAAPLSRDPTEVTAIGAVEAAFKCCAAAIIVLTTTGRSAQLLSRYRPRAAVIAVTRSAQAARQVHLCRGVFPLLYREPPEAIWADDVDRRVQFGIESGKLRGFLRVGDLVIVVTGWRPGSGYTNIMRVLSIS
Experimental: Compound activation of recombinant human PKLR pyruvate kinase activity was determined by biochemical assay. N-terminal His-tagged enzyme was sourced from R&D Systems and its substrates phosphoenolpyruvate (PEP) and ADP from Sigma-Aldrich and 2Bscientific Ltd, respectively. The Kinase-Glo® Plus luminescence assay was from Promega. All other reagents were from Sigma-Aldrich. Test Compounds were prepared as 10 mM DMSO stocks and dilution series prepared in DMSO for direct dilution into Assay Buffer comprising 50 mM imidazole, 50 mM KCl, 7 mM MgCl2, 0.01% Tween20, 0.05% BSA (pH 7.2).
Human PKLR was diluted into Assay Buffer to a final concentration of 5 pM. Enzyme-Assay Buffer mix was dispensed into 384-well shallow-well white-walled plates and Test Compounds added by acoustic dispense (Echo®, Labcyte Inc).
After 60 minutes' incubation on an orbital shaker (300 rpm, 26° C.), enzyme activity was quantified by the luminescent detection of generated ATP. Kinase-Glo® Plus reagent was added to each well and the plates incubated for a further 15 minutes on an orbital shaker in the dark (300 rpm, 26° C.) before luminescence measurement on a plate reader (PHERAstar® FSX, BMG Labtech).
Percentage activation was calculated by normalising […] signals to plate LOW (DMSO vehicle) and HIGH (5 μM TEPP-46) controls. EC50 and Emax values were determined from 4-parameter logistic fits of compound concentration-response curves.

recombinant human PKM2 = molecular target: T2, recombinant human PKM2 (Homo sapiens, UniProt P14618); assay: Human PKM2 activation assay (Kinase-Glo Plus luminescent detection of generated ATP); type: biochemical; conditions: for Emax: read-out: hPKM2 Emax; for EC50: recombinant human PKM2 activation, 4-parameter logistic fit, read-out: hPKM2 EC50
T2 construct: His (N); purchased R&D Systems
T2 sequence (P14618 2-531 limits assumed): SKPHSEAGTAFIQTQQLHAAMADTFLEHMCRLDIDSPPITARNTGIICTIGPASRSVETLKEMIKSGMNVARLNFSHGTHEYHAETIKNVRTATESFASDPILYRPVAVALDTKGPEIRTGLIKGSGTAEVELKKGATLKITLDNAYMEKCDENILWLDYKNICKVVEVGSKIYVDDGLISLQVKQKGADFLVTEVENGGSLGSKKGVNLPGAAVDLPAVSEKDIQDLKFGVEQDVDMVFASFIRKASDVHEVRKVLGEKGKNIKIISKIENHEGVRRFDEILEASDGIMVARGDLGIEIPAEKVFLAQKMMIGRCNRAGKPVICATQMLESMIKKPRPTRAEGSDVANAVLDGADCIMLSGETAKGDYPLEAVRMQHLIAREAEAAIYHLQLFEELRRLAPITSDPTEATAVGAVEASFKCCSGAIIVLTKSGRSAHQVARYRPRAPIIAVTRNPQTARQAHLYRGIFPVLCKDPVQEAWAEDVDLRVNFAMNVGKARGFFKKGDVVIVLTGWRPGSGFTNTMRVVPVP
Outline: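 Luminescent ATP detection (Kinase-Glo Plus, 15 min, 26 °C) followed a 60 min, 26 °C shaken reaction of compound with […] His-tagged human PKM2, PEP and ADP in imidazole/KCl/MgCl2 buffer with Tween20 and BSA, pH 7.2.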

[1] = percentage activation normalised to DMSO vehicle (LOW) and 5 μM TEPP-46 (HIGH)

EC50 (recombinant human PKLR) | Emax (recombinant human PKLR) | Emax (recombinant human PKM2; [1]) | EC50 (recombinant human PKM2) | hPKM2 Emax (recombinant human PKM2; [1]) | SMILES
4.9 nM | 132% | 107% | 45 nM |  | O=c1c2ccc(S(=O)(=O)c3ccc4occc4n3)cc2cnn1Cc1cc[nH]n1 [Example 223, 2-((1H-pyrazol-3-yl)methyl)-6-(furo[3,2-b]pyridin-5-ylsulfonyl)phthalazin-1(2H)-one]
27.5 nM | 129% | 106% | 118 nM |  | O=c1c2ccc(S(=O)(=O)c3cnn(CCO)c3)cc2cnn1Cc1cc[nH]n1 [Example 241, 2-((1H-pyrazol-3-yl)methyl)-6-((1-(2-hydroxyethyl)-1H-pyrazol-4-yl)sulfonyl)phthalazin-1(2H)-one]
11.3 nM | 111% | 116% | 111 nM |  | Cc1nc(Cn2ncc3cc(S(=O)(=O)c4cn[nH]c4)ccc3c2=O)ccc1F [Example 251, 6-((1H-pyrazol-4-yl)sulfonyl)-2-((5-fluoro-6-methylpyridin-2-yl)methyl)phthalazin-1(2H)-one]
15.3 nM | 142% | 108% | 88.8 nM |  | O=c1c2ccc(S(=O)(=O)c3cc4c(cn3)OCC4)cc2cnn1Cc1cc[nH]n1 [Example 258, 2-((1H-pyrazol-3-yl)methyl)-6-((2,3-dihydrofuro[2,3-c]pyridin-5-yl)sulfonyl)phthalazin-1(2H)-one]
18 nM | 120% | 105% | 107 nM |  | Cc1ccc(F)c(Cn2ncc3cc(S(=O)(=O)c4cn[nH]c4)ccc3c2=O)n1 [Example 252, 6-((1H-pyrazol-4-yl)sulfonyl)-2-((3-fluoro-6-methylpyridin-2-yl)methyl)phthalazin-1(2H)-one]
24.8 nM | 135% | 106% | 109 nM |  | Cc1cccc(Cn2ncc3cc(S(=O)(=O)c4cc[nH]n4)ccc3c2=O)n1 [Example 239, 6-((1H-pyrazol-3-yl)sulfonyl)-2-((6-methylpyridin-2-yl)methyl)phthalazin-1(2H)-one]
13.5 nM | 127% | 114% | 134 nM |  | O=c1c2cc(NCCO)c(S(=O)(=O)c3ccccc3)cc2cnn1Cc1ccn(C2CC2)n1 [Example 265, 2-((1-cyclopropyl-1H-pyrazol-3-yl)methyl)-7-((2-hydroxyethyl)amino)-6-(phenylsulfonyl)phthalazin-1(2H)-one]
29.6 nM | 118% | 119% | 68.6 nM |  | O=c1c2ccc(S(=O)(=O)c3ccccc3)cc2cnn1Cc1n[nH]cc1F [Example 110, 2-((4-fluoro-1H-pyrazol-3-yl)methyl)-6-(phenylsulfonyl)phthalazin-1(2H)-one]
4.27 nM | 114% | 94.9% | 46.3 nM |  | Cc1[nH]nc(Cn2ncc3cc(S(=O)(=O)c4cn[nH]c4)ccc3c2=O)c1Cl [Example 314]
2.65 nM | 118% | 108% | 19.6 nM |  | O=c1c2ccc(S(=O)(=O)c3cn[nH]c3)cc2cnn1Cc1ccc2occc2n1 [Example 298, 6-((1H-pyrazol-4-yl)sulfonyl)-2-(furo[3,2-b]pyridin-5-ylmethyl)phthalazin-1(2H)-one]
4.1 nM | 108% | 112% | 25.8 nM |  | COc1ccc(S(=O)(=O)c2ccc3c(=O)n(Cc4cccc(N)c4)ncc3c2)cc1 [Example 142, 2-(3-aminobenzyl)-6-((4-methoxyphenyl)sulfonyl)phthalazin-1(2H)-one]
8 nM | 115% | 120% | 59.2 nM |  | COc1ccc(S(=O)(=O)c2ccc3c(=O)n(Cc4ccn(C5CC5)n4)ncc3c2)cn1 [Example 205, 2-((1-cyclopropyl-1H-pyrazol-3-yl)methyl)-6-((6-methoxypyridin-3-yl)sulfonyl)phthalazin-1(2H)-one]
241 nM | 129% |  | 106 nM | 59.1% | COc1ccc([S@](=N)(=O)c2ccc3c(=O)n(Cc4ccc(OC)nc4)ncc3c2)cc1 (single isomer, unassigned) [Example 192]
8 nM | 108% | 113% | 78.3 nM |  | Nc1cccc(Cn2ncc3cc(S(=O)(=O)c4ccccc4)ccc3c2=O)c1 [Example 141, 2-(3-aminobenzyl)-6-(phenylsulfonyl)phthalazin-1(2H)-one]
8.6 nM | 117% | 114% | 50.3 nM |  | O=c1c2ccc(S(=O)(=O)c3cnc4occc4c3)cc2cnn1Cc1cc[nH]n1 [Example 225, 2-((1H-pyrazol-3-yl)methyl)-6-(furo[2,3-b]pyridin-5-ylsulfonyl)phthalazin-1(2H)-one]
3.71 nM | 124% | 10% | 36.9 nM |  | CC(O)c1nc(S(=O)(=O)c2ccc3c(=O)n(Cc4ccc5c(n4)CCO5)ncc3c2)cs1 (stereo not shown) [Example 327]
14 nM | 133% | 91.2% | 85.6 nM |  | COc1ccc([S@@](=N)(=O)c2ccc3c(=O)n(Cc4ccc(OC)nc4)ncc3c2)cc1 (single isomer, unassigned) [Example 138]
9.64 nM | 118% | 133% | 163 nM |  | COc1ccc(S(=O)(=O)c2ccc3c(=O)n(Cc4ncccc4O)ncc3c2)cc1 [Example 113, 2-((3-hydroxypyridin-2-yl)methyl)-6-(4-methoxyphenylsulfonyl)phthalazin-1(2H)-one]
19.5 nM | 120% | 95.9% | 50.5 nM |  | Cn1cc(S(=O)(=O)c2ccc3c(=O)n(Cc4cccc(C5CC5)n4)ncc3c2)cn1 [Example 275, 2-((6-cyclopropylpyridin-2-yl)methyl)-6-((1-methyl-1H-pyrazol-4-yl)sulfonyl)phthalazin-1(2H)-one]
6.58 nM |  |  | 50.4 nM |  | O=c1c2ccc(S(=O)(=O)c3cnn(CCO)c3)cc2cnn1Cc1ccc2c(n1)CCO2 [Example 309]
19.3 nM | 111% | 102% | 60.7 nM |  | COc1ccc(S(=O)(=O)c2ccc3c(=O)n(Cc4cccn(CCO)c4=O)ncc3c2)cc1 [Example 5, 2-((1-(2-hydroxyethyl)-2-oxo-1,2-dihydropyridin-3-yl)methyl)-6-(4-methoxyphenylsulfonyl)phthalazin-1(2H)-one]
22.2 nM | 134% | 107% | 102 nM |  | Cn1ccc(Cn2ncc3cc(S(=O)(=O)c4ccccc4)c(F)cc3c2=O)n1 [Example 242, 7-fluoro-2-((1-methyl-1H-pyrazol-3-yl)methyl)-6-(phenylsulfonyl)phthalazin-1(2H)-one]
39.1 nM | 124% | 91.3% | 93.4 nM |  | O=c1c2ccc(S(=O)(=O)c3cnn(CCO)c3)cc2cnn1Cc1ccn(C2CC2)n1 [Example 272, 2-((1-cyclopropyl-1H-pyrazol-3-yl)methyl)-6-((1-(2-hydroxyethyl)-1H-pyrazol-4-yl)sulfonyl)phthalazin-1(2H)-one]
30.3 nM | 125% | 107% | 159 nM |  | Cn1cc(S(=O)(=O)c2ccc3c(=O)n(Cc4cc[nH]n4)ncc3c2)cn1 [Example 240, 2-((1H-pyrazol-3-yl)methyl)-6-((1-methyl-1H-pyrazol-4-yl)sulfonyl)phthalazin-1(2H)-one]
86.3 nM | 111% | 84.9% | 161 nM |  | O=c1c2ccc(S(=O)(=O)c3cnn(C4CC4)c3)cc2cnn1Cc1cccnc1O [Example 193, 6-(1-cyclopropyl-1H-pyrazol-4-ylsulfonyl)-2-((2-hydroxypyridin-3-yl)methyl)phthalazin-1(2H)-one]
10.2 nM | 124% | 106% | 44.2 nM |  | C[C@H]1Cc2cc(S(=O)(=O)c3ccc4c(=O)n(Cc5ccn(C)n5)ncc4c3)ccc2O1 [Example 219, (S)-2-((1-methyl-1H-pyrazol-3-yl)methyl)-6-((2-methyl-2,3-dihydrobenzofuran-5-yl)sulfonyl)phthalazin-1(2H)-one]

SMILES | EC50 (recombinant human PKLR) | Emax (recombinant human PKLR) | Emax (recombinant human PKM2; [1]) | EC50 (recombinant human PKM2) | hPKM2 Emax (recombinant human PKM2; [1])
Cc1cccc(Cn2ncc3cc(S(=O)(=O)c4cn[nH]c4)ccc3c2=O)n1 [Example 238, 6-((1H-pyrazol-4-yl)sulfonyl)-2-((6-methylpyridin-2-yl)methyl)phthalazin-1(2H)-one] | 14.4 nM | 127% | 108% | 125 nM | 
